# Measurements as given in ChEMBL document CHEMBL1240440, “A bioactive labdane diterpenoid from Curcuma amada and its semisynthetic analogues as antitubercular agents” (2010).
# Test system: Mycobacterium tuberculosis
# Assay: Antitubercular activity against Mycobacterium tuberculosis H37Rv ATCC 27294 after 24 hrs by BACTEC radiometric susceptibility assay
# Type: functional
# Details: H37Rv ATCC 27294, 24 h
row,SMILES,MIC [µg/mL]
1,C=C1CC[C@H]2C(C)(C)CCC[C@]2(C)[C@H]1C/C=C(/C=O)CC=O,500
2,C=C1CC[C@H]2C(C)(C)CCC[C@]2(C)[C@H]1C/C=C(/CO)CCO,250
3,C=C1CC[C@H]2C(C)(C)CCC[C@]2(C)[C@H]1C/C=C(\CCOC(C)=O)COC(C)=O,> 1000
4,C=C1CC[C@H]2C(C)(C)CCC[C@]2(C)[C@H]1C/C=C(/C=N/O)C/C=N/O,500
5,CO[C@H]1/C=C/O[C@@]2(C)Oc3c(C)c(O)c4c(O)c(c(/C=N/N5CCN(C)CC5)c(O)c4c3C2=O)NC(=O)/C(C)=C\C=C\[C@H](C)[C@H](O)[C@@H](C)[C@@H](O)[C@@H](C)[C@H](OC(C)=O)[C@@H]1C [RIFAMPIN],2
6,CN[C@@H]1[C@H](O[C@H]2[C@H](O[C@H]3[C@H](O)[C@@H](O)[C@H](N=C(N)N)[C@@H](O)[C@@H]3N=C(N)N)O[C@@H](C)[C@]2(O)C=O)O[C@@H](CO)[C@H](O)[C@H]1O [STREPTOMYCIN],2
